Test results: the NIST ThermoML archive (doi:10.1016/j.jct.2016.10.002)
± gives the expanded uncertainty stated by the source.

Columns and labels:
[1] = refractive index (Na D-line) (dimensionless); xn = mol fraction of the nth substance listed; conditions: 303.15 K, 101 kPa, Liquid, Standard Abbe refractometry
[2] = refractive index (Na D-line) (dimensionless); conditions: 303.15 K; 101.33 kPa; Liquid; Standard Abbe refractometry

SMILES	refractive index ([1]; x1 = 0.333)	further results
C[N+](C)(C)CCO.[Cl-] [choline chloride] + OCC(O)CO	1.4853 ± 0.0007	–
C[N+](C)(C)CCO.[Cl-] [choline chloride] + OCCO	1.4691 ± 0.0007	–
O=C(O)CC(=O)O [propanedioic acid] + C[N+](C)(C)CCO.[Cl-]	–	refractive index ([1]; x2 = 0.5): 1.4866 ± 0.0008
O [water]	–	refractive index [2]: 1.332 ± 0.0007
